Results taken from US12194048B2, “Use of pyrrolopyridine derivatives for preventing or treating inflammatory diseases” (VORONOI CO., LTD., priority 2020, dated 2025).

What was measured:
[1] = Metabolic stability (MS) evaluation; assay type: in vitro ADME
[2] = Metabolic stability (MS) evaluation; assay type: in vitro ADME; remark: listed apart in the source
[3] = test system: IMQ-induced psoriasis-like skin inflammation model; assay: Oral treatment in imiquimod (IMQ)-induced psoriasis-like skin inflammation; assay type: in vivo, BALB/c mice
Procedure: The positive control, methotrexate at 2 mg/kg and tofacitinib at 5 mg/kg were administered by oral gavage twice (BID) daily during the same study period.
Fifteen (15) mg Imiquimod (IMQ) cream (5%) (Aldara; 3M Pharmaceuticals) was topically (TOP) administered once daily (QD) on the right ear one hour after treatment from Day 1 to Day 9 for 9 consecutive days, translating to a daily dose of 0.75 mg of the active compound. Ear swelling was measured on Day 0 and thereafter 30 min before dosing on Days 2, 4, 6 and 8. On Day 10, ear swelling was measured 24 hours after the last dosing.

[4] = test system: 2,4,6-trinitrobenzenesulfonic acid (TNBS) induced colitis mouse model; assay: TNBS induced colitis mouse model; assay type: in vivo, male BALB/c mice; settings: 60 mpk orally once daily
Procedure: In the present experiment, male BALB/c mice (8 weeks old) were used. The experimental animals were subjected to dietary restriction for one day prior to treating with TNBS. Bowel inflammation was induced by administering TNBS (TNBS solution, 1 mg in 0.1 mL 50% ethanol) by submucosal injection in the colon. For the control animals in which inflammation was not induced, only 0.9% NaCl solution without TNBS was administered by submucosal injection in the colon.
The comparative compound, cyclosporine A, was orally administered once daily, and the TNF-α blocker (Enbrel®) was administered intraperitoneally once daily.
During the test, changes in body weight, occult bleeding in stool, and stool consistently were examined every day, and serum was collected on day 5 of the experiment. Bowel tissue was collected at the termination of the experiment to measure the weight of the bowel tissue, degree of polymorphonuclear leukocyte (PMN) deposition and degree of myeloperoxidase (MPO) expression.

CAMK2D = target: T1, CAMK2D (Homo sapiens, UniProt Q13557); assay: scanMAX Kinase analysis panel (DiscoverX); assay type: binding; settings: drug 1 μM in DMSO; from % control
T1 construct: purchased DiscoverX scanMAX Kinase analysis panel
Text: (§1) [(Example compound−positive control)/(negative control−positive control)×100]

JNK3 = target: T2, JNK3 (Homo sapiens, UniProt P53779); assay: scanMAX Kinase analysis panel (DiscoverX); assay type: binding; settings: drug 1 μM in DMSO; from % control
T2 construct: purchased DiscoverX
Text: as §1

PHKG1 = target: T3, PHKG1 (Homo sapiens, UniProt Q16816); assay: scanMAX Kinase analysis panel (DiscoverX); assay type: binding; settings: drug 1 μM in DMSO; from % control
T3 construct: purchased DiscoverX scanMAX Kinase analysis panel
Text: as §1

PHKG2 = target: T4, PHKG2 (Homo sapiens, UniProt P15735); assay: scanMAX Kinase analysis panel (DiscoverX); assay type: binding; settings: drug 1 μM in DMSO; from % control
T4 construct: purchased DiscoverX scanMAX Kinase analysis panel
Text: as §1

PAK2 = target: T5, PAK2 (Homo sapiens, UniProt Q13177); assay: scanMAX Kinase analysis panel (DiscoverX); assay type: binding; settings: drug 1 μM in DMSO; from % control
T5 construct: purchased DiscoverX scanMAX Kinase analysis panel
Text: as §1

MAPKAPK2 = target: T6, MAPKAPK2 (Homo sapiens, UniProt P49137); assay: scanMAX Kinase analysis panel (DiscoverX); assay type: binding; settings: drug 1 μM in DMSO; from % control
T6 construct: purchased DiscoverX
Text: as §1

INSR = target: T7, INSR (Homo sapiens, UniProt P06213); assay: scanMAX Kinase analysis panel (DiscoverX); assay type: binding; settings: drug 1 μM in DMSO; from % control
T7 construct: purchased DiscoverX
Text: as §1

[5] = target: T8, JAK1(JH2domain-pseudokinase) (Homo sapiens, UniProt P23458); assay: scanMAX Kinase analysis panel (DiscoverX); assay type: binding; settings: drug 1 μM in DMSO; from % control
T8 construct: JAK1 (JH2domain-pseudokinase); purchased DiscoverX
Text: as §1

MYLK = target: T9, MYLK (Homo sapiens, UniProt Q15746); assay: scanMAX Kinase analysis panel (DiscoverX); assay type: binding; settings: drug 1 μM in DMSO; from % control
T9 construct: purchased DiscoverX scanMAX Kinase analysis panel
Text: as §1

ABL1-nonphosphorylated = target: T10, ABL1-nonphosphorylated (Homo sapiens, UniProt P00519); assay: scanMAX Kinase analysis panel (DiscoverX); assay type: binding; settings: drug 1 μM in DMSO; from % control
T10 construct: purchased DiscoverX scanMAX Kinase analysis panel
Text: as §1

JNK2 = target: T11, JNK2 (Homo sapiens, UniProt P45984); assay: scanMAX Kinase analysis panel (DiscoverX); assay type: binding; settings: drug 1 μM in DMSO; from % control
T11 construct: purchased DiscoverX
Text: as §1

ALK = target: T12, ALK (Homo sapiens, UniProt Q9UM73); assay: scanMAX Kinase analysis panel (DiscoverX); assay type: binding; settings: drug 1 μM in DMSO; from % control
T12 construct: purchased DiscoverX scanMAX Kinase analysis panel
Text: as §1

[6] = Metabolic stability (MS) evaluation; assay type: in vitro ADME; remark: listed apart in the source
[7] = test system: collagen-induced arthritis mouse model; assay: Collagen-induced arthritis mouse model; assay type: in vivo, male DBA-1 mice
Procedure: In the present experiment, male DBA-1 mice aged 8 to 10 weeks were used as the animal model. After mixing Bovine Type II Collagen (CII) with the same amount of complete Freud's adjuvant, 100 μL was injected by intradermal injection into the tail of the DBA-1 mouse. After 21 days, the same CII was mixed with the same amount of incomplete Freud's adjuvant (IFA, Chondrex), then 100 μL was injected by intradermal injection into the tail. Observation of symptoms of the mouse model began at this point, and arthritis assessment was carried out every other day. […] In the case of the control group Enbrel (anti-TNF-α), 10 mg/kg was subcutaneously administered once every 2 days, then dexamethasone (0.15 mg/kg), Baricitinib (5 mg/kg), Filgotinib (50 mg/kg), and Tofacitinib (10 mg/kg) were orally administered twice a day; as for arthritis assessment, the scores assessed at the four feet of the mouse were added and divided by 4 to give a mean, based on the mean arthritic index by Rosloniec et al (Reference Literature 1: Brand D D, et al. Nat Protoc. 2007:2(5): 1269-75).
The scores and criteria for the arthritis assessment are as follows. • Score 0: No edema or erythema. • Score 1: Mild edema and erythema limited to the foot or ankle joint • Score 2: Mild edema and erythema from the ankle joint to the tarsals • Score 3: Moderate edema and erythema from the ankle joint to the metatarsals. • Score 4: Severe edema and skin flaring from the ankle to the entire leg, or stiffness in the leg
Upon termination of the experiment, the weight of the two hind legs of each mouse were measured and added, and these measurements were compared.
Vol. 30, No. I, p93-96.; Reference 3: Pine P R, et al. Clin Immunol. 124 (3): 244-57).

THP-1 cells = assay: Pro-inflammatory cytokine expression in LPS-stimulated THP-1 cells; assay type: cell-based; settings: pre-treated 1 hour, then LPS 0.5 μg/ml 24 hours; FIG. 1a
hERG = hERG (Homo sapiens, UniProt Q12809); assay: hERG analysis
[8] = test system: naive T cells in the mouse spleen; assay: Regulatory T cell and Th17 cell differentiation; assay type: cell-based; settings: FIG. 2
Procedure: The experiment was conducted using Harmine as a control.

[9] = 30 mg/kg orally twice a day, H&E and T-blue, FIGS. 3c to 3e

Sequence of hERG (Q12809 whole entry): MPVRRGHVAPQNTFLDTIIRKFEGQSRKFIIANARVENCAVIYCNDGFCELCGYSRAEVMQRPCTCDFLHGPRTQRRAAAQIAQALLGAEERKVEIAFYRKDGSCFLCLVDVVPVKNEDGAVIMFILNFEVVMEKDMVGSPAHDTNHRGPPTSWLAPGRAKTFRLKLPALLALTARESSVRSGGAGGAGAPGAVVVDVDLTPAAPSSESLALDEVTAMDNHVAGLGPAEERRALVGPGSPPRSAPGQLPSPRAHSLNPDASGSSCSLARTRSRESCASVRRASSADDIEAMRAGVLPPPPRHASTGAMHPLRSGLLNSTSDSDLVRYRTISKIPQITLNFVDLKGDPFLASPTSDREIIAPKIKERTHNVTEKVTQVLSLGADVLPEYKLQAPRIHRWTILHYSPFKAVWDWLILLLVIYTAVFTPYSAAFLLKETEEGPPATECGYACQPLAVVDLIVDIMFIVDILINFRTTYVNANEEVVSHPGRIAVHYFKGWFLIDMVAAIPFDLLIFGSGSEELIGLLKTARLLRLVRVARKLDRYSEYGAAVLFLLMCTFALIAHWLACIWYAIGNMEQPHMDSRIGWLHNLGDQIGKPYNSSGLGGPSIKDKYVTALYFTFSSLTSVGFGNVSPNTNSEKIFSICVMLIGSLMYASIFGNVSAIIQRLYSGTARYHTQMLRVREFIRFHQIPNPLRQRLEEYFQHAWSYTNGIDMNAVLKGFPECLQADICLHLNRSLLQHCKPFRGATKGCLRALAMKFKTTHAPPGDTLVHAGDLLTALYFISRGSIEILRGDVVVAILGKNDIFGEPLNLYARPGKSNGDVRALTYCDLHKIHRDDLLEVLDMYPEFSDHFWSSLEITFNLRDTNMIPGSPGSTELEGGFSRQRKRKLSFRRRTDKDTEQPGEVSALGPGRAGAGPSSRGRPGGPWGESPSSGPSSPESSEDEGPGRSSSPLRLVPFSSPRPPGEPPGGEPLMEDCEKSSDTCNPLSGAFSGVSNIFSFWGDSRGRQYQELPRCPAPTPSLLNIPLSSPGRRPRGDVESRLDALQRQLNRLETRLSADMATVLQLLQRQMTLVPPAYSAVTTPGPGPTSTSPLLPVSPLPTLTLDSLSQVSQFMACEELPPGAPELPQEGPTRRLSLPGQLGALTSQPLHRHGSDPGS
T4 sequence (P15735 whole entry): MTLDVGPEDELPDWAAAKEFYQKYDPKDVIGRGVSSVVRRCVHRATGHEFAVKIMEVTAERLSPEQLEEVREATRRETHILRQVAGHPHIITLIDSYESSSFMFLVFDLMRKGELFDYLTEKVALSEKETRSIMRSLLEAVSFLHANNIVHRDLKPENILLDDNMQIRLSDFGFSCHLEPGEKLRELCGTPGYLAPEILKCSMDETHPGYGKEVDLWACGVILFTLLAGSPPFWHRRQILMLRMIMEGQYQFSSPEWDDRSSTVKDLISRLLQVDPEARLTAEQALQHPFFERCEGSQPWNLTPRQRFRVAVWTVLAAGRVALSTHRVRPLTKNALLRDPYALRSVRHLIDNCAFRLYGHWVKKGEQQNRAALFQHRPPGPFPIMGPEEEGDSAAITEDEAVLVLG
T12 sequence (Q9UM73 19-1620): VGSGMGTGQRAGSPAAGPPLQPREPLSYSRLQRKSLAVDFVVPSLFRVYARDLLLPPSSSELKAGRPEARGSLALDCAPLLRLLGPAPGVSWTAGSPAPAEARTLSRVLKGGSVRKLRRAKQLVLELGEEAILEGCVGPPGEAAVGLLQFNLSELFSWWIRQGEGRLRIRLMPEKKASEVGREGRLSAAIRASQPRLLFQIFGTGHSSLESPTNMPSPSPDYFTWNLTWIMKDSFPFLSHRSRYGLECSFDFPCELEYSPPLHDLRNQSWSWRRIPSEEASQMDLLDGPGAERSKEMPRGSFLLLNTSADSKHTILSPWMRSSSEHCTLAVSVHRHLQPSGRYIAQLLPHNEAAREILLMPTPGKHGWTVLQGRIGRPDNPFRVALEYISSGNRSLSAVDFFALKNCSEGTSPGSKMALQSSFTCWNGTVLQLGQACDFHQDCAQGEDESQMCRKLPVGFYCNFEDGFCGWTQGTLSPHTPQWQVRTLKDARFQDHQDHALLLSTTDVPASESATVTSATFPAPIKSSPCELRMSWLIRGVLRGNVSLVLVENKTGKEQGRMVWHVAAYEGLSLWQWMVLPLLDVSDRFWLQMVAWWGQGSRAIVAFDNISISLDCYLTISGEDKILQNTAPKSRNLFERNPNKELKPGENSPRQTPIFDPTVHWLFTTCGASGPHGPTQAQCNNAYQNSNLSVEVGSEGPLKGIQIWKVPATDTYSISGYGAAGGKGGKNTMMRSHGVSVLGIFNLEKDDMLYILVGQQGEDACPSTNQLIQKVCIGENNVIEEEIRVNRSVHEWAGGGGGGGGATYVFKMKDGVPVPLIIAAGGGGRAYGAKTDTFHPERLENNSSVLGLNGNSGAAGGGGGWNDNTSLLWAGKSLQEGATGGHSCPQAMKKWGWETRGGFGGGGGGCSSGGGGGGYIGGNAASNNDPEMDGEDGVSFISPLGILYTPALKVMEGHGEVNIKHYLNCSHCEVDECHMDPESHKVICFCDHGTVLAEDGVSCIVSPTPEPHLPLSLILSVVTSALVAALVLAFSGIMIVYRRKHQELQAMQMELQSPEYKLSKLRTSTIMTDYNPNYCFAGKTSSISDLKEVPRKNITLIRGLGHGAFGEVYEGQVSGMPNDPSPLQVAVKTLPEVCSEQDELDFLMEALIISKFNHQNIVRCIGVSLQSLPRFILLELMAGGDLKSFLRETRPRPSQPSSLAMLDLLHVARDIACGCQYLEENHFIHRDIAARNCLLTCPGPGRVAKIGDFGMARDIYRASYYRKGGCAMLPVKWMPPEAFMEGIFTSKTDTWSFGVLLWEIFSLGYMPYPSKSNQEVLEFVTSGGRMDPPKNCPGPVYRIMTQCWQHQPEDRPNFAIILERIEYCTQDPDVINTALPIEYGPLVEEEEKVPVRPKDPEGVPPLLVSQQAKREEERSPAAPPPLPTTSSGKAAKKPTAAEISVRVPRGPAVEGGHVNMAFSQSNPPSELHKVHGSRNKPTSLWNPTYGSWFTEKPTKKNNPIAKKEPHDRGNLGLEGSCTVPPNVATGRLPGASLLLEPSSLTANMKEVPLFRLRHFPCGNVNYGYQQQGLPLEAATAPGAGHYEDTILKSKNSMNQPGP
T9 sequence (Q15746 whole entry): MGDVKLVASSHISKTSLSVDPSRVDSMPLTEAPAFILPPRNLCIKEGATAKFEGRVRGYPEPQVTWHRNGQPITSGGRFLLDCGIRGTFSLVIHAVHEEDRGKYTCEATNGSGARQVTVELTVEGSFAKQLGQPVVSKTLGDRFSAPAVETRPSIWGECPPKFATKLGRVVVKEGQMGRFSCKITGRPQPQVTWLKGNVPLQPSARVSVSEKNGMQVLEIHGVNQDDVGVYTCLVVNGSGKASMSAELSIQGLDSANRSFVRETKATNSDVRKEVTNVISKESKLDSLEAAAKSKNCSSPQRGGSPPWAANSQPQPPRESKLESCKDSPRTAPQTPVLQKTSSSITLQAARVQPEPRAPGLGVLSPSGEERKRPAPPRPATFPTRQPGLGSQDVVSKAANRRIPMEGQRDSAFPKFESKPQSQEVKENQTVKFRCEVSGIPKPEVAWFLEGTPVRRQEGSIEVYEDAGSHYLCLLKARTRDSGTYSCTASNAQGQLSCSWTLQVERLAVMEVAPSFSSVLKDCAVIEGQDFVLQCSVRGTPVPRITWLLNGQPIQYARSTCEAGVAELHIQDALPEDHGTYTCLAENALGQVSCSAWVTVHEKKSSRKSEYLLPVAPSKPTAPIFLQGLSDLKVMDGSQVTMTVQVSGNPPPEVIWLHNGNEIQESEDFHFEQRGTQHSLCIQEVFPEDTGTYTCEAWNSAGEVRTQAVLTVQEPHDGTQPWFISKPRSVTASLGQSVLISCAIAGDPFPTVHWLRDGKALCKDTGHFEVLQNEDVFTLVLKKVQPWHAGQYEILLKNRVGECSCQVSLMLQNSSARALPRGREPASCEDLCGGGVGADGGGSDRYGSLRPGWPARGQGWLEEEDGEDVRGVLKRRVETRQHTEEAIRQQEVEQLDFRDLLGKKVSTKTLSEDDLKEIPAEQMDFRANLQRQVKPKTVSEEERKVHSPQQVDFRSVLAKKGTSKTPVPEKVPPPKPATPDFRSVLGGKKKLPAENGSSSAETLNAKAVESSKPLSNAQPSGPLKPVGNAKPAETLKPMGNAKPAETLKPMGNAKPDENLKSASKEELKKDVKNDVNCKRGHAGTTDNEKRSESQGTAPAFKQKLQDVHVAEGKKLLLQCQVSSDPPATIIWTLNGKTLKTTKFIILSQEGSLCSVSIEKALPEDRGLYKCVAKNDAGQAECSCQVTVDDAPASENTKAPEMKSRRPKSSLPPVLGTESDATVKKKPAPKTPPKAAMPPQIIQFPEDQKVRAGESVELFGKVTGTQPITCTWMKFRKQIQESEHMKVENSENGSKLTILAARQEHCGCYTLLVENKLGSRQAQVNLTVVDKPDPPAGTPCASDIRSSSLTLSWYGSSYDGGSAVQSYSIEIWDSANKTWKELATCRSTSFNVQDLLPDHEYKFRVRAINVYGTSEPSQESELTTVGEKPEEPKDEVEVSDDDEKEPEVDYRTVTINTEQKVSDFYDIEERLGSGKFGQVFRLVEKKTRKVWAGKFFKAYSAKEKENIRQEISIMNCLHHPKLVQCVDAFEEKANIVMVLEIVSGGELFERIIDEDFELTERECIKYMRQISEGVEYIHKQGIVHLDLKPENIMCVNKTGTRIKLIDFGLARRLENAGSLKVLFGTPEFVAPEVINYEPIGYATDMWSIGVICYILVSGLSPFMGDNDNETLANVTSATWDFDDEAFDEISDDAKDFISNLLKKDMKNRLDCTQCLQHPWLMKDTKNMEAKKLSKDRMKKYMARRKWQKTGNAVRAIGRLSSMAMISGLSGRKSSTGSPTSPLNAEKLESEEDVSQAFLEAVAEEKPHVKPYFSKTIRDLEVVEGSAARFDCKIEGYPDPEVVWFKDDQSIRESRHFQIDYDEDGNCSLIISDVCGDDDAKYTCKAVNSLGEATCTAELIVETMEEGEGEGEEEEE

Q: With CCNc1cc(Nc2ccc(C(=O)N3CCC(N4CCOCC4)CC3)cc2OC)nc2[nH]cc(C(F)(F)F)c12 [Compound 1, (4-((4-(ethylamino)-3-(trifluoromethyl)-1H-pyrrolo[2,3-b]pyridine-6-yl)amino)-3-methoxyphenyl)(4-morpholinopiperidine-1-yl)methanone] as the molecule, how does the “MS (1 μM) (% remaining during 30 min) Mouse” value [1] read?
A: 40%

Q: What about the “MS (1 μM) (% remaining during 30 min) Dog” value [2] of the same molecule?
A: 96%

Q: What about the “protective effects on IMQ-induced psoriasis-like inflammation (ear swelling)” value ([3]; 45 and 60 mg/kg PO BID×9 days) of the same molecule?
A: significantly (p<0.05) protective effects

Q: What about the IMQ-induced ear swelling ([3]; 45 and 60 mg/kg oral gavage BID 9 days, Day 8 to Day 10, vs vehicle group) of the same molecule?
A: statistically (p<0.05) significant inhibition

Q: And the “weight of bowel tissue” value ([4]; FIG. 6)?
A: weight reduction

Q: What about the “thickness of lamina propria” value ([4]; H&E, FIG. 5) of the same molecule?
A: decreased in thickness

Q: And the MPO levels ([4]; bowel tissue, vs control not treated, FIG. 6)?
A: lower

Q: What about the inhibition at 1 µM (CAMK2D) of the same molecule?
A: 40 to 59%

Q: And the inhibition at 1 µM (JNK3)?
A: 40 to 59%

Q: What about the inhibition at 1 µM (PHKG1) of the same molecule?
A: ≥ 59%

Q: And the inhibition at 1 µM (PHKG2)?
A: ≥ 59%

Q: What about the inhibition at 1 µM (PAK2) of the same molecule?
A: ≥ 59%

Q: And the inhibition at 1 µM (MAPKAPK2)?
A: 40 to 59%

Q: And the inhibition at 1 µM (INSR)?
A: 40 to 59%

Q: What about the inhibition at 1 µM [5] of the same molecule?
A: 40 to 59%

Q: What about the inhibition at 1 µM (MYLK) of the same molecule?
A: ≥ 59%

Q: What about the inhibition at 1 µM (ABL1-nonphosphorylated) of the same molecule?
A: 40 to 59%

Q: What about the inhibition at 1 µM (JNK2) of the same molecule?
A: 40 to 59%

Q: What about the inhibition at 1 µM (ALK) of the same molecule?
A: ≥ 59%

Q: What about the “MS (1 μM) (% remaining during 30 min) Human” value [6] of the same molecule?
A: 39%

Q: What about the “weight of the joint” value ([7]; 30 mg/kg orally twice a day for 2 weeks, FIG. 3b) of the same molecule?
A: reduced

Q: What about the “area of cells where collagen-induced inflammation had occurred (histology)” value [7, 9] of the same molecule?
A: reduced

Q: What about the “area of the damaged joint (histology)” value [7, 9] of the same molecule?
A: reduced

Q: What about the “expression of IL-6” value (THP-1 cells) of the same molecule?
A: effectively inhibited

Q: And the “expression of TNF-α” value (THP-1 cells)?
A: effectively inhibited

Q: And the IC50 (hERG)?
A: 4.39 µM

Q: And the “cardiac toxicity (hERG, in words)” value (hERG)?
A: excellent safety in terms of cardiac toxicity

Q: What about the “differentiation of Th17 cells” value ([8]; Th17 differentiation conditions) of the same molecule?
A: decreased

Q: And the “differentiation of regulatory T cells (Treg)” value ([8]; regulatory T cell differentiation conditions)?
A: increased
